Experiments:
Assay in all cases: relative viability (nuclei count vs DMSO), 5 days (fraction); higher = more cells survive
[1] = compound: C#Cc1cccc(Nc2ncnc3cc(OCCOC)c(OCCOC)cc23)c1 [Erlotinib] + CC(=O)Nc1cccc(-n2c(=O)n(C3CC3)c(=O)c3c(Nc4ccc(I)cc4F)n(C)c(=O)c(C)c32)c1 [Trametinib] (partner 0.02 µM)
Summary of the method: (§1)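 The day after seeding in 1536-well plates, lung cancer cell lines were treated by pin tool with a single drug, or with a fixed anchor-drug dose together with five library-drug doses (not always all listed) in √10 steps. After 5 days, a combined fix-and-stain solution (final 0.05% Triton X-100, 1% formaldehyde, 1 ug/ml Hoechst) was added. Nuclei counted on 4× images gave relative viability as treated counts over vehicle counts, reported as the median of duplicate plates.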

[2] = compound: C#Cc1cccc(Nc2ncnc3cc(OCCOC)c(OCCOC)cc23)c1 [Erlotinib] + CC(C)C[C@H](NC(=O)[C@H](Cc1ccccc1)NC(=O)c1cnccn1)B(O)O [Bortezomib] (partner 0.002 µM)
Summary of the method: as §1

[3] = compound: C#Cc1cccc(Nc2ncnc3cc(OCCOC)c(OCCOC)cc23)c1 [Erlotinib] + Cc1nc(Nc2ncc(C(=O)Nc3c(C)cccc3Cl)s2)cc(N2CCN(CCO)CC2)n1 [Dasatinib] (partner 0.075 µM)
Summary of the method: as §1

[4] = compound: C#Cc1cccc(Nc2ncnc3cc(OCCOC)c(OCCOC)cc23)c1 [Erlotinib] + O=C(c1cc(Cc2n[nH]c(=O)c3ccccc23)ccc1F)N1CCN(C(=O)C2CC2)CC1 [Olaparib] (partner 8 µM)
Summary of the method: as §1

[5] = compound: O=C(Nc1c[nH]nc1-c1nc2ccc(CN3CCOCC3)cc2[nH]1)NC1CC1 [AT9283] + COc1cccc2cc(-c3nc([C@H]4CC[C@H](C(=O)O)CC4)n4ncnc(N)c34)[nH]c12 [OSI-027] (partner 0.5 µM)
Summary of the method: as §1

| Cell Line | relative viability ([1]; first compound 0.02 µM) | relative viability ([1]; first compound 0.2 µM) | relative viability ([1]; first compound 0.6325 µM) | relative viability ([1]; first compound 2 µM) | relative viability ([2]; first compound 0.02 µM) | relative viability ([2]; first compound 0.2 µM) | relative viability ([2]; first compound 0.6325 µM) | relative viability ([2]; first compound 2 µM) | relative viability ([3]; first compound 0.02 µM) | relative viability ([3]; first compound 0.2 µM) | relative viability ([3]; first compound 0.6325 µM) | relative viability ([3]; first compound 2 µM) | relative viability ([4]; first compound 0.02 µM) | relative viability ([4]; first compound 0.2 µM) | relative viability ([4]; first compound 0.6325 µM) | relative viability ([4]; first compound 2 µM) | relative viability ([5]; first compound 0.003 µM) | relative viability ([5]; first compound 0.03 µM) | relative viability ([5]; first compound 0.09487 µM) | relative viability ([5]; first compound 0.3 µM) |
| --- | --- | --- | --- | --- | --- | --- | --- | --- | --- | --- | --- | --- | --- | --- | --- | --- | --- | --- | --- | --- |
| NCI-H322M | 0.472 | 0.461 | 0.462 | 0.445 | 1.21 | 1.17 | 1.12 | 0.57 | 0.231 | 0.246 | 0.257 | 0.238 | 0.776 | 0.67 | 0.631 | 0.551 | 0.396 | 0.306 | 0.472 | 0.464 |
| LCLC-97TM1 | 0.197 | 0.197 | 0.163 | 0.168 | 0.528 | 0.747 | 0.529 | 0.464 | 0.749 | 0.794 | 0.967 | 0.782 | 0.45 | 0.352 | 0.508 | 0.321 | 0.539 | 0.288 | 0.0798 | 0.108 |
| NCI-H2405 | 0.543 | 0.574 | 0.613 | 0.55 | 1.12 | 1.03 | 0.998 | 0.938 | 0.214 | 0.224 | 0.201 | 0.195 | 0.965 | 0.849 | 0.888 | 0.81 | 0.685 | 0.654 | 0.533 | 0.262 |
| NCI-H647 | 0.653 | 0.367 | 0.556 | 0.422 | 1.05 | 0.961 | 1.36 | 0.795 | 0.274 | 0.117 | 0.221 | 0.144 | 0.556 | 0.541 | 0.594 | 0.243 | 0.782 | 0.524 | 0.173 | 0.132 |
| NCI-H650 | 0.964 | 0.985 | 0.919 | 0.963 | 0.749 | 0.88 | 0.958 |  | 0.38 | 0.456 | 0.526 | 0.425 | 0.419 | 0.389 |  | 0.34 | 0.519 | 0.528 | 0.379 | 0.169 |
| LU99A | 0.705 | 0.583 | 0.643 | 0.484 | 1.34 | 1.1 | 1.24 | 0.899 | 0.556 | 0.474 | 0.584 | 0.475 | 0.309 | 0.29 | 0.252 | 0.208 | 0.297 | 0.233 | 0.166 | 0.155 |
| EKVX | 0.367 | 0.2 | 0.191 | 0.162 | 1.13 | 0.513 | 0.323 | 0.17 | 0.544 | 0.242 | 0.321 | 0.223 | 0.839 | 0.476 | 0.385 | 0.183 | 0.661 | 0.655 | 0.503 | 0.26 |
| NCI-H2087 | 0.219 | 0.185 | 0.19 | 0.138 | 1 | 1.12 | 0.804 | 0.768 | 0.799 | 0.821 | 0.923 | 0.735 | 0.622 | 0.576 | 0.576 | 0.469 | 0.637 | 0.392 | 0.14 | 0.134 |
| HCC-827 | 0.205 | 0.159 | 0.148 | 0.169 | 0.526 | 0.343 | 0.276 | 0.35 | 0.148 | 0.152 | 0.195 | 0.126 | 0.243 | 0.147 | 0.149 | 0.139 | 0.694 | 0.647 | 0.597 | 0.181 |
| A-427 | 0.885 | 0.752 | 0.882 | 0.749 | 1.01 | 1.04 | 1.1 | 0.951 | 0.832 | 0.687 | 0.842 | 0.676 | 0.792 | 0.757 | 0.713 | 0.716 | 0.421 | 0.326 | 0.159 | 0.176 |
| NCI-H460 | 0.104 | 0.129 | 0.131 | 0.0721 | 1.09 | 1.12 | 1.52 | 1.09 | 0.486 | 0.51 | 0.5 | 0.432 | 0.453 | 0.345 | 0.425 | 0.363 | 0.678 | 0.81 | 0.248 | 0.0423 |
| NCI-H1734 | 0.74 | 0.718 | 0.619 | 0.634 | 1.1 | 0.955 | 1.17 | 0.961 | 0.574 | 0.482 | 0.473 | 0.428 | 0.61 | 0.588 | 0.583 | 0.545 | 0.634 | 0.331 | 0.237 | 0.201 |
| NCI-H2009 | 0.385 | 0.306 | 0.301 | 0.239 | 1.06 | 1.03 | 1.19 | 1.01 | 0.365 | 0.351 | 0.432 | 0.238 | 0.783 | 0.73 | 0.792 | 0.627 | 0.652 | 0.511 | 0.182 | 0.101 |
| NCI-H1993 | 0.597 | 0.491 | 0.497 | 0.465 | 1.01 | 0.698 | 0.809 | 0.739 | 0.579 | 0.531 | 0.553 | 0.586 | 0.91 | 0.606 | 0.748 | 0.658 | 0.545 | 0.528 | 0.487 | 0.486 |
